# Assay results published in patent US10160867B2, “Benzoxaborole-containing coating resistant to cellulose-supportable fungus” (THE PENN STATE RESEARCH FOUNDATION, priority 2015, dated 2018).
# Assays:
# Type in all cases: cell-based
# Aspergillus fumigatus = assay: 3 day MIC, broth microdilution in 25% PDB; conditions: for MIC: 72 h
# Experimental: (§1) Stock solutions (concentrations of between 4,000 μg/mL to 10,000 μg/mL; stored at −18° C.) of the above antifungals were prepared in dimethyl sulfoxide (DMSO). The stock solutions were further diluted into sterile 25% potato dextrose broth (PDB) so that the diluted solutions could be used for the antifungal susceptibility studies. This way, a typical microdilution study would reach a final ratio of about 0.5-2% v/v of DMSO in 25% PDB.
# (§2) Spore inocula were prepared in sterile distilled water with 0.1% Tween® 20 (a polysorbate surfactant), and a hemocytometer was used to determine the spore density. Typically, the spore inoculum was prepared fresh prior to each study, and the inoculum was appropriately diluted to a final concentration of 0.4-1×10^5 spores/mL or colony-forming unit (CFU)/mL in each study. The spore suspension can be stored in a refrigerator at 4° C. for up to one week.
# The minimal inhibitory concentrations (MICs) for individual antifungal agents were determined by following a modified broth microdilution protocol CLSI (Clinical and Laboratory Standards Institute) M38-A2 [Clinical and Laboratory Standards Institute (2008) Reference method for broth dilution antifungal susceptibility testing of filamentous fungi—2nd edition: Approved Standard M38-A2, CLSI, Wayne, Pa.] where 25% potato dextrose broth (PDB) was used as the medium. The studies were performed in flat bottom, 96-well microtiter plates (Greiner Bio-One, Frickenhausen, Germany).
# (§3) Plates sealed with clear polyester film (VWR, Radnor, Pa.) were incubated at a temperature of about 25° C. The progress of fungal growth was monitored at 48 hours and 72 hours.
# Penicillium chrysogenum [1] = assay: Fungus resistance test for painted surfaces containing antifungal additives (defacement rating); parameters: key: 10 = no defacement, 0 = completely defaced
# Experimental: (§4) A Defacement Rating is measured by estimating the percentage of surface defacement with 10 being no defacement and 0 begin completely defaced.
# (§5) This test was used to evaluate the resistance of paint films containing antifungal additives to surface fungal growth.
# (§6) Olympic® Home interior flat latex paint (PPG Industries, Pittsburgh, Pa.) and Valspar® QuikHide White flat interior paint (Valspar Corporation, Minneapolis, Minn.) were used for all studies unless otherwise noted. Stock solutions of the antifungal additives of interest were prepared in reagent grade dimethyl sulfoxide (DMSO; Alfa Aesar, Ward Hill, Mass.). Additives were spiked (by adding appropriate amounts of the antifungal stock solutions) into the liquid paint at specified concentrations. Samples of the additive-spiked paint were vigorously mixed with a vortex mixer for at least one minute to ensure uniform dispersion of the additive in the paint. […] Studies that use other brands of paint followed the same protocol as described for those using the Olympic® Home interior flat latex paint and Valspar® QuikHide paint.
# (§7) Test surfaces were prepared in triplicate. In most cases, the tested conditions were repeated on a different date, again in triplicate. […] Two coats of paint were applied with a polyester brush to completely cover both faces of the filter paper disc, allowing at least four hours drying time between coats.
# (§8) Nutrient-Salts Agar (NSA) medium was prepared according to ASTM method G21-13 in 100×15 mm sterile polystyrene petri dishes (VWR® Radnor, Pa.) with a solidified agar layer of about 3 to about 6 mm (⅛ to ¼ in.) in depth. The agar was allowed to solidify for at least 24 hours before being used. The painted test filter paper discs were placed in the center of the agar plates in a biosafety hood while wearing clean nitrile gloves.
# (§9) The paint coatings were evaluated against three representative cellulose-supportable fungi: Stachybotrys chartarum, Penicillium chrysogenum, and Alternaria alternata. […] Fungal isolates of Alternaria alternata and Penicillium chrysogenum were obtained from the Plant Pathology and Environmental Microbiology Department at Penn State University.
# (§10) A spore suspension of each of these fungi was prepared by pouring a 20-mL portion of autoclaved deionized water containing 0.01% Tween® 20 onto a subculture of each fungal species. Spores were counted with the use of a hemocytometer (Hausser Scientific, Horsham, Pa.) under a compound light microscope. Spore suspensions of Stachybotrys chartarum and Penicillium chrysogenum were diluted to 1×10^6 spores/mL with autoclaved deionized water. Spore suspensions of Alternaria alternata were used “as is” in the range of 200,000 to 400,000 spores/mL.
# (§11) Painted test surfaces were inoculated with a spray bottle or with a sterile cotton-tipped applicator. To inoculate the sample with a spray bottle, the spore suspension was sprayed twice on the painted test discs with an autoclaved spray bottle that delivered approximately 0.14 g of fluid per spray. To inoculate the sample with a cotton-tipped applicator, an autoclaved cotton-tipped applicator was submerged in approximately 400 μL of the spore inoculum solution (spore concentrations described above) and applied evenly over the surface of the painted test surface twice. A fresh autoclaved cotton-tipped applicator was used for the application of each painted disc. All the paint studies with Alternaria alternata and Stachybotrys chartarum were inoculated using the spray bottle method. For studies with Penicillium chrysogenum using Olympic® Home paint, the spray bottle inoculation method was used. For studies with Penicillium chrysogenum using Valspar® QuikHide paint, the cotton-tipped applicator inoculation method was used.
# (§12) After inoculation, the NSA agar plates were sealed with Parafilm®.
# Alternaria alternata [2] = assay: as above; parameters: key: 10 = no defacement, 0 = completely defaced; conditions: +100 μg/mL in Olympic Home paint
# Experimental: as §4, §5, §6, §7, §8, §9, §10, §11, §12
# Stachybotrys chartarum [3] = assay: as above; parameters: key: 10 = no defacement, 0 = completely defaced; conditions: +100 μg/mL in Olympic Home paint
# Experimental: as §4, §5, §6, §7, §8, §9, §10, §11, §12
# [4] = system: Penicillium brevicompactum; assay: 3 day MIC, broth microdilution in 25% PDB; conditions: 25% PDB; for MIC: 72 h, read-out: 3 day MIC
# Experimental: as §1, §2
# (§13) The studies were performed in flat bottom, 96-well microtiter plates (Greiner Bio-One, Frickenhausen, Germany).
# as §3
# Penicillium purpurogenum = assay: 3 day MIC, broth microdilution in 25% PDB; conditions: Penicillium purpurogenum, 25% PDB; for MIC: 72 h, read-out: 3 day MIC
# Experimental: as §1, §2, §13, §3
# Penicillium chrysogenum [5] = assay: 3 day MIC, broth microdilution in 25% PDB; conditions: 25% PDB; for MIC: 72 h, read-out: 3 day MIC
# Experimental: as §1, §2, §13, §3
# Alternaria alternata [6] = assay: 3 day MIC, broth microdilution in 25% PDB; conditions: 25% PDB; for MIC: 72 h, read-out: 3 day MIC
# Experimental: as §1, §2, §13, §3
# Stachybotrys chartarum [7] = assay: 3 day MIC, broth microdilution in 25% PDB; conditions: 25% PDB; for MIC: 72 h, read-out: 3 day MIC
# Experimental: as §1, §2, §13, §3
# Penicillium corylophilum = assay: 3 day MIC, broth microdilution in 25% PDB; conditions: 25% PDB; for MIC: 72 h, read-out: 3 day MIC
# Experimental: as §1, §2, §13, §3
# [8] = +100 μg/mL in Olympic Home paint, 7 days
# [9] = +100 μg/mL in Olympic Home paint, 14 days
# [10] = +100 μg/mL in Olympic Home paint, 21 days
# [11] = +200 μg/mL in Olympic Home paint, 7 days
# [12] = +200 μg/mL in Olympic Home paint, 14 days
# [13] = +200 μg/mL in Olympic Home paint, 21 days
# [14] = +200 μg/mL in Valspar QuikHide paint, 7 days
# [15] = +200 μg/mL in Valspar QuikHide paint, 14 days
# [16] = +200 μg/mL in Valspar QuikHide paint, 21 days
Structure (SMILES),MIC (Aspergillus fumigatus),Average defacement rating ± standard deviation (Penicillium chrysogenum [1]; [8]),Average defacement rating ± standard deviation (Penicillium chrysogenum [1]; [9]),Average defacement rating ± standard deviation (Penicillium chrysogenum [1]; [10]),Average defacement rating ± standard deviation (Penicillium chrysogenum [1]; [11]),Average defacement rating ± standard deviation (Penicillium chrysogenum [1]; [12]),Average defacement rating ± standard deviation (Penicillium chrysogenum [1]; [13]),Average defacement rating ± standard deviation (Penicillium chrysogenum [1]; [14]),Average defacement rating ± standard deviation (Penicillium chrysogenum [1]; [15]),Average defacement rating ± standard deviation (Penicillium chrysogenum [1]; [16]),Average defacement rating ± standard deviation (Alternaria alternata [2]; 7 days),Average defacement rating ± standard deviation (Alternaria alternata [2]; 14 days),Average defacement rating ± standard deviation (Alternaria alternata [2]; 21 days),Average defacement rating ± standard deviation (Stachybotrys chartarum [3]; 7 days),Average defacement rating ± standard deviation (Stachybotrys chartarum [3]; 14 days),Average defacement rating ± standard deviation (Stachybotrys chartarum [3]; 21 days),MIC [4],MIC (Penicillium purpurogenum),MIC (Penicillium chrysogenum [5]),MIC (Alternaria alternata [6]),further results
"N#Cc1c(Cl)c(Cl)c(Cl)c(C#N)c1Cl [Chlorothalonil, chlorothalonil]",0.2 µg/mL,4.9 ± 1.9,0.0 ± 0.0,0.0 ± 0.0,8.3 ± 1.4,0.8 ± 2.0,0.0 ± 0.0,10.0 ± 0.0,5.3 ± 0.6,0.3 ± 0.6,1.9 ± 2.4,0.5 ± 1.8,0.5 ± 1.8,5.8 ± 3.0,0.8 ± 1.8,0.6 ± 1.7,< 0.1 µg/mL,0.78 µg/mL,< 0.1 µg/mL,0.78 µg/mL,3 day MIC (Stachybotrys chartarum [7]): <0.1 µg/mL; MIC (Stachybotrys chartarum [7]): < 0.1 µg/mL; MIC (Penicillium corylophilum): 0.39 µg/mL
"CCCCNC(=O)OCC#CI [IPBC, 3-Iodo-2-propynylbutylcarbamate]",–,10.0 ± 0.0,9.4 ± 0.4,9.4 ± 0.4,10.0 ± 0.0,10.0 ± 0.0,9.3 ± 0.8,10.0 ± 0.0,10.0 ± 0.0,10.0 ± 0.0,9.9 ± 0.4,8.4 ± 2.7,7.5 ± 3.4,9.9±0.3,8.1 ± 1.5,6.1±2.7,–,–,–,–,3 day MIC (Aspergillus fumigatus): 0.4 µg/mL; 3 day MIC [4]: 0.4 µg/mL; 3 day MIC (Penicillium purpurogenum): <0.1 µg/mL; 3 day MIC (Penicillium chrysogenum [5]): 0.2 µg/mL; 3 day MIC (Alternaria alternata [6]): 0.8 µg/mL; 3 day MIC (Stachybotrys chartarum [7]): 0.8 µg/mL; 3 day MIC (Penicillium corylophilum): 0.20 µg/mL
c1ccc2[nH]c(-c3cscn3)nc2c1 [Thiabendazole],6.25 µg/mL,4.1 ± 0.0,0.4 ± 0.4,0.0 ± 0.0,9.3 ± 1.2,4.0 ± 4.7,1.7 ± 3.6,10.0 ± 0.0,9.3 ± 1.2,4.7 ± 4.6,0.0 ± 0.0,0.0 ± 0.0,0.0 ± 0.0,1.3 ± 0.3,0.0 ± 0.0,0.0 ± 0.0,0.4 µg/mL,0.2 µg/mL,0.4 µg/mL,100 µg/mL,MIC (Stachybotrys chartarum [7]): 25 µg/mL; MIC (Penicillium corylophilum): 0.39 µg/mL
